US20260258006A1, “NEW ANTIBIOTIC COMPOUNDS” (UNIVERSITÉ CÔTE D'AZUR, priority 2022, published 2026)
Values after ≈ are worked out from the molar mass of the structure shown. Where two headings read alike, the source gives them in different places.

Experiments:
Type in all cases: cell-based
[1] = tested on: Staphylococcus aureus strain RN4220; assay: Minimal Bactericide Concentration (MBC) determination; conditions: RN4220, 24 h, read-out: MBC RN4220
Protocol: (§1) MIC is defined as the smallest concentration of a compound that inhibits the growth of bacteria. For that, 6 doses were tested (1, 5, 12.5, 25, 50, 100 μM) for both strains incubated at 37° C., for 20 h.
(§2) Minimum inhibitory concentration (MIC, incubation for 20 h) and maximum bactericide concentration (MBC, incubation for 24 h) for S. aureus strains RN4220 and S25.
(§3) 2 Staphylococcus aureus Strains: • RN4220 (non-pathogenic) • S25 (pathogenic) • MIC: minimal inhibitory concentration • MBC: minimal bactericide concentration

[2] = tested on: Staphylococcus aureus strain S25; assay: as above; conditions: 24 h in fresh media, pathogenic strain
Protocol: as §1, §2, §3

[3] = tested on: Staphylococcus aureus strain RN4220; assay: Minimal Inhibitory Concentration (MIC) determination; conditions: read-out: MIC RN4220
Protocol: as §1, §2, §3

[4] = tested on: Staphylococcus aureus strain S25; assay: as above; conditions: Bacteriostatic, 20 h, 37° C., pathogenic strain
Protocol: as §1, §2, §3

[5] = tested on: Staphylococcus aureus strain RN4220; assay: Bacterial growth inhibition screen at 50 μM; conditions: RN4220, 50 μM, 20 h, 37° C.
Protocol: (§4) The inhibition of the growth of two Staphylococcus aureus strains ([…], modified laboratory strain, non-pathogenic; and S25, pathogenic strain obtained from patients) by the presence of our compounds were used to evaluate their efficacy as bacteriostatic and/or bactericide compounds.
(§5) All compounds presented were dissolved in DMSO (10 mM stock solution) and tested initially at 50 μM concentration. The bacterial growth was measured after 5 h and 20 h incubation at 37° C. with the compounds. As positive control, the antibiotics ampicillin and kanamycin were used.

[6] = tested on: Staphylococcus aureus strain S25; assay: Bacterial growth inhibition screen at 50 μM; conditions: S25, 50 μM, 20 h, 37° C.
Protocol: as §4, §5

[7] = tested on: human embryonic kidney 293 cells (HEK293); assay: Cytotoxicity by extracellular LDH release (CyQUANT LDH Cytotoxicity Assay Kit); conditions: HEK293, 24 h, at their active doses (range of MIC and MBC), N=3
Protocol: • HEK293: 24 h in the presence of the bactericide compounds or DMSO • Method of evaluation: CyQUANT™ LDH Cytotoxicity Assay Kit.
Cytotoxicity through extracellular lactate dehydrogenase (LDH) quantification upon incubation of the compounds with HEK 293T cells at the same range of concentration as MIC and MBC. LDH: positive control, DMEM: negative control. N=3.
Preliminary safety of these compounds towards host cells was evaluated by using a extracellular lactate dehydrogenase (LDH) release model with human embryonic kidney 293 cells (HEK293).

[8] = RN4220, Bacteriostatic, 20 h, 37° C., non-pathogenic strain

`N=C(Nc1nc2c(Cl)cccc2s1)C(Cl)(Cl)Cl` [MTF235, 2,2,2-trichloro-N-(4-chlorobenzo[d]thiazol-2-yl)acetimidamide] gave an MBC [1] of 50 µM (≈ 16.5 µg/mL), an MBC [2] of 50 µM (≈ 16.5 µg/mL) and an MIC [3, 8] of 25 µM (≈ 8.23 µg/mL). For the same compound, the MIC [4] was 25 µM (≈ 8.23 µg/mL), the “bacterial growth / growth inhibition (in words)” value [5] was “no growth” and the “bacterial growth / growth inhibition (in words)” value [6] was “no growth”. The “cytotoxicity (extracellular LDH level versus DMSO control)” value [7] was “no cytotoxicity activity”.

Compound `Cc1cccc2sc(NC(=N)C(Cl)(Cl)Cl)nc12` [MTF572, 2,2,2-trichloro-N-(4-methylbenzo[d]thiazol-2-yl)acetimidamide] has an MBC [1] of 100 µM (≈ 30.9 µg/mL), an MIC ([3]; RN4220, 20 h) of 40 µM (≈ 12.3 µg/mL) and an MIC [4] of 40 µM (≈ 12.3 µg/mL). The “bacterial growth / growth inhibition (in words)” value [5] was “no growth” and the “bacterial growth / growth inhibition (in words)” value [6] was “no growth”.

Compound `N=C(Nc1nc2c(F)cc(F)cc2s1)C(Cl)(Cl)Cl` [MTF573, 2,2,2-trichloro-N-(4,6-difluorobenzo[d]thiazol-2-yl)acetimidamide] has an MBC [1] of 50 µM (≈ 16.5 µg/mL), an MBC [2] of 50 µM (≈ 16.5 µg/mL) and an MIC [3, 8] of 40 µM (≈ 13.2 µg/mL). The MIC [4] was 50 µM (≈ 16.5 µg/mL), the “bacterial growth / growth inhibition (in words)” value [5] was “no growth” and the “bacterial growth / growth inhibition (in words)” value [6] was “no growth”. The “cytotoxicity (extracellular LDH level versus DMSO control)” value [7] was “no cytotoxicity activity”.

In the case of `O=C(Nc1nc2c(Cl)cc(Cl)cc2s1)C(Cl)(Cl)Cl` [MTF640, N-(4,6-dichlorobenzo[d]thiazol-2-yl)trichloroacetamide], the MBC [1] is reported as 50 µM (≈ 18.2 µg/mL), the MBC [2] is reported as 50 µM (≈ 18.2 µg/mL) and the MIC [3, 8] is reported as 12.5 µM (≈ 4.56 µg/mL). For the same compound, the MIC [4] was 25 µM (≈ 9.11 µg/mL) and the “cytotoxicity (extracellular LDH level versus DMSO control)” value [7] was “no cytotoxicity activity”.

`N=C(Nc1nc2c(Cl)cc(Cl)cc2s1)C(Cl)(Cl)Cl` [MTF642, 2,2,2-trichloro-N-(4,6-dichlorobenzo[d]thiazol-2-yl)acetimidamide] showed an MBC [1] of 12.5 µM (≈ 4.54 µg/mL), an MBC [2] of 50 µM (≈ 18.2 µg/mL) and an MIC [3, 8] of 12.5 µM (≈ 4.54 µg/mL). For the same compound, the MIC [4] was 50 µM (≈ 18.2 µg/mL) and the “cytotoxicity (extracellular LDH level versus DMSO control)” value [7] was “no cytotoxicity activity”.

For `N=C(Nc1nc2c(Br)cccc2s1)C(Br)Br` [MTF643, 2,2-dibromo-N-(4-bromobenzo[d]thiazol-2-yl)acetimidamide], the MBC [1] was 25 µM (≈ 10.7 µg/mL), the MBC [2] was 50 µM (≈ 21.4 µg/mL) and the MIC [3, 8] was 25 µM (≈ 10.7 µg/mL). The MIC [4] was 25 µM (≈ 10.7 µg/mL) and the “cytotoxicity (extracellular LDH level versus DMSO control)” value [7] was “no cytotoxicity activity”.
